Read-outs that look alike come from different tables or passages of the source.

The experiment deals with T1, human Prostaglandin D Synthase (GST2) (Homo sapiens, UniProt O60760).
T1 construct: the open reading frame of human Prostaglandin D Synthase was amplified from cDNA; made in house; host or cells: E. coli TOP10F'
Description: Homogeneous biochemical assay of human Prostaglandin D Synthase (GST2) based on its glutathion-S-transferase activity (GSH conjugation to monochlorobimane, fluorescence). From the text: Homogeneous, Biochemical Assay Monitoring the Activity of Human Prostaglandin D Synthase Based on the Glutathion-S-Transferase Activity of the Enzyme
Prostaglandin D2 synthesis by Prostaglandin D synthase (GST2) requires transfer of Glutathion (GSH) to the substrate, Prostaglandin H2. […] Since the Prostaglandin D2 synthesis is absolutely dependent on the GST activity of the enzyme, assays monitoring the GST activity should allow to identify specific inhibitors of Prostaglandin D2 synthetic activity. The assay principle used is based on enzymatic conjugation of GSH to Monochlorobimane (MCB), that becomes fluorescent upon this chemical modification. Therefore, the enzymatic reaction can be monitored by total fluorescence measurement.
In brief, the open reading frame of human Prostaglandin D Synthase was amplified from cDNA using the primer pair:
This construct allows prokaryotic expression of Prostaglandin D Synthase as fusion protein with a N-terminal hexa-histidine tag, referred to as NHis-Prostaglandin D Synthase.
Expression of NHis-Prostaglandin D Synthase was in E. coli TOP10F′ (Invitrogen, Germany, cat. no. C3030-03). […] When the culture had reached a density corresponding to an A600 of 0.6, an equal volume of room temperature LB/ampicillin was added. […] Cells harvested by centrifugation were resuspended in 50 mM tris(hydroxymethyl)aminomethane hydrochloride pH 7.5 (Tris/HCl, Sigma, cat. no. T5941).
Removal of unbound material was with 100 ml lysis buffer. Elution was with 50 ml of 50 mM Tris/HCl pH 7.5, 300 mM imidazol (Sigma, Germany, cat. no. I2399)/HCl pH 7.5). […] Aliquots were shock frozen in liquid nitrogen and stored at −80° C.
All assay components were diluted in reaction buffer, 50 mM MES/KOH (pH 6.1), 0.7 mM GSH (Sigma, G4251), 2 mM MgCl2 (Sigma, M2670), 0.05% Pluronic F127 (Sigma, P2443), and stored on ice prior to use. Compounds were diluted in 90% DMSO yielding final assay concentrations from the picomolar to three digit micromolar range.
Total fluorescent measurement was carried out with excitation and emission wavelength of 390 and 460 nm, respectively (BMG Fluostar Optima).

The mark [1] stands for this setting: given beside the compound name in Examples 1 to 167, read-out: Potency Range (GST2 IC50).

T1 sequence (O60760 whole entry): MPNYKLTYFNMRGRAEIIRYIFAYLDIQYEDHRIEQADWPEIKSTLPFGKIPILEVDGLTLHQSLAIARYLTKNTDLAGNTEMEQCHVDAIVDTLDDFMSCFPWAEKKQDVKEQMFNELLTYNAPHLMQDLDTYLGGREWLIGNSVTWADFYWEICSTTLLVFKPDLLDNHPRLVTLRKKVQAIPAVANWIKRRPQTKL

For `O=C(Nc1nc(-c2ccncc2)cs1)N1CCN(C(=O)c2cccc(F)c2)CC1` [Compound 75, 4-(3-Fluoro-benzoyl)-piperazine-1-carboxylic acid (4-pyridin-4-yl-thiazol-2-yl)-amide], the IC50 under setting [1] lay within 101 to 1000 nM.

For `Cc1nc(-c2cccc(NC(=O)N3CCN(C(=O)c4cccc(F)c4)CC3)c2)cs1` [Compound 77, 4-(3-Fluoro-benzoyl)-piperazine-1-carboxylic acid [3-(2-methyl-thiazol-4-yl)-phenyl]-amide], the half-maximal inhibitory concentration (IC50) under setting [1] is 101 to 1000 nM.

With `Cc1nccc(-c2cccc(NC(=O)N3CCN(C(=O)c4cccc(F)c4)CC3)c2)n1` [Compound 78, 4-(3-Fluoro-benzoyl)-piperazine-1-carboxylic acid [3-(2-methyl-pyrimidin-4-yl)-phenyl]-amide], the IC50 under setting [1] was 11 to 100 nM.

On to `Cc1cc2nc(NC(=O)N3CCN(C(=O)c4cccc(F)c4)CC3)sc2cc1C` [Compound 79, 4-(3-Fluoro-benzoyl)-piperazine-1-carboxylic acid (5,6-dimethyl-benzothiazol-2-yl)-amide], for which the half-inhibitory concentration (IC50) under setting [1] is 1 to 10 nM.

Consider `Cc1ccc2nc(NC(=O)N3CCN(C(=O)c4cccc(F)c4)CC3)sc2c1` [Compound 80, 4-(3-Fluoro-benzoyl)-piperazine-1-carboxylic acid (6-methyl-benzothiazol-2-yl)-amide], for which the IC50 under setting [1] was 1 to 10 nM.

Regarding `COc1ccc2nc(NC(=O)N3CCN(C(=O)c4cccc(F)c4)CC3)sc2c1` [Compound 81, 4-(3-Fluoro-benzoyl)-piperazine-1-carboxylic acid (6-methoxy-benzothiazol-2-yl)-amide], under setting [1], the IC50 fell in the range of 1 to 10 nM.

As for `O=C(Nc1nc2ccc(Cl)cc2s1)N1CCN(C(=O)c2cccc(F)c2)CC1` [Compound 82, 4-(3-Fluoro-benzoyl)-piperazine-1-carboxylic acid (6-chloro-benzothiazol-2-yl)-amide], under setting [1], the IC50 lay in the range of 1 to 10 nM.

On to `CCOC(=O)c1ccc2nc(NC(=O)N3CCN(C(=O)c4cccc(F)c4)CC3)sc2c1` [Compound 83, 2-{[4-(3-Fluoro-benzoyl)-piperazine-1-carbonyl]-amino}-benzothiazole-6-carboxylic acid ethyl ester], for which, under setting [1], the half-maximal inhibitory concentration (IC50) is 11 to 100 nM.

Take `CC(=O)Nc1ccc2nc(NC(=O)N3CCN(C(=O)c4cccc(F)c4)CC3)sc2c1` [Compound 84, 4-(3-Fluoro-benzoyl)-piperazine-1-carboxylic acid (6-acetylamino-benzothiazol-2-yl)-amide]: the IC50 under setting [1] fell in the range of 11 to 100 nM.

On to `N#Cc1cc(NC(=O)N2CCN(C(=O)c3cccc(F)c3)CC2)ccc1F` [Compound 85, 4-(3-Fluoro-benzoyl)-piperazine-1-carboxylic acid (3-cyano-4-fluoro-phenyl)-amide], for which the IC50 under setting [1] lay in the range of 101 to 1000 nM.

Take `O=C(Nc1cccc(-c2ccncc2)c1)N1CCN(C(=O)c2cccc(F)c2)CC1` [Compound 86, 4-(3-Fluoro-benzoyl)-piperazine-1-carboxylic acid (3-pyridin-4-yl-phenyl)-amide]: under setting [1], the IC50 lay within 101 to 1000 nM.

For the compound `O=C(Nc1cccc(-c2cccnc2)c1)N1CCN(C(=O)c2cccc(F)c2)CC1` [Compound 87, 4-(3-Fluoro-benzoyl)-piperazine-1-carboxylic acid (3-pyridin-3-yl-phenyl)-amide], the 50% inhibitory concentration (IC50) under setting [1] was in the range of 101 to 1000 nM.

For the compound `O=C(Nc1ccc(Br)c(F)c1)N1CCN(C(=O)c2cccc(F)c2)CC1` [Compound 88, 4-(3-Fluoro-benzoyl)-piperazine-1-carboxylic acid (4-bromo-3-fluoro-phenyl)-amide], the IC50 under setting [1] is 11 to 100 nM.

Regarding `O=C(Nc1ccc(-c2cc[nH]n2)cc1)N1CCN(C(=O)c2cccc(F)c2)CC1` [Compound 89, 4-(3-Fluoro-benzoyl)-piperazine-1-carboxylic acid [4-(1H-pyrazol-3-yl)-phenyl]-amide], the IC50 under setting [1] is 11 to 100 nM.

Take `Cc1nc(-c2ccc(NC(=O)N3CCN(C(=O)c4cccc(F)c4)CC3)cc2)cs1` [Compound 90, 4-(3-Fluoro-benzoyl)-piperazine-1-carboxylic acid [4-(2-methyl-thiazol-4-yl)-phenyl]-amide]: the IC50 under setting [1] lay in the range of 11 to 100 nM.

With `O=C(Nc1ccc(S(=O)(=O)N2CCOCC2)cc1)N1CCN(C(=O)c2cccc(F)c2)CC1` [Compound 91, 4-(3-Fluoro-benzoyl)-piperazine-1-carboxylic acid [4-(morpholine-4-sulfonyl)-phenyl]-amide], the IC50 under setting [1] was in the range of 11 to 100 nM.

Consider `O=C(Nc1cccc(S(=O)(=O)N2CCOCC2)c1)N1CCN(C(=O)c2cccc(F)c2)CC1` [Compound 92, 4-(3-Fluoro-benzoyl)-piperazine-1-carboxylic acid [3-(morpholine-4-sulfonyl)-phenyl]-amide], for which the IC50 under setting [1] is 101 to 1000 nM.

With `CNC(=O)c1cccc(NC(=O)N2CCN(C(=O)c3cccc(F)c3)CC2)c1` [Compound 93, 4-(3-Fluoro-benzoyl)-piperazine-1-carboxylic acid (3-methylcarbamoyl-phenyl)-amide], the IC50 under setting [1] was 101 to 1000 nM.

As for `COC(=O)c1cc(NC(=O)N2CCN(C(=O)c3cccc(F)c3)CC2)ccc1F` [Compound 94, 2-Fluoro-5-{[4-(3-fluoro-benzoyl)-piperazine-1-carbonyl]-amino}-benzoic acid methyl ester], the IC50 under setting [1] lay in the range of 101 to 1000 nM.

On to `COC(=O)c1ccc(NC(=O)N2CCN(C(=O)c3cccc(F)c3)CC2)cc1F` [Compound 95, 2-Fluoro-4-{[4-(3-fluoro-benzoyl)-piperazine-1-carbonyl]-amino}-benzoic acid methyl ester], for which the IC50 under setting [1] was 101 to 1000 nM.

As for `O=C(O)c1ccc(NC(=O)N2CCN(C(=O)c3cccc(F)c3)CC2)cc1F` [Compound 96, 2-Fluoro-4-{[4-(3-fluoro-benzoyl)-piperazine-1-carbonyl]-amino}-benzoic acid], the IC50 under setting [1] is 101 to 1000 nM.

Turning to `O=C(Nc1ccc(C(=O)N2CCOCC2)c(F)c1)N1CCN(C(=O)c2cccc(F)c2)CC1` [Compound 97, 4-(3-Fluoro-benzoyl)-piperazine-1-carboxylic acid [3-fluoro-4-(morpholine-4-carbonyl)-phenyl]-amide], the IC50 under setting [1] fell in the range of 101 to 1000 nM.

Consider `O=C(Nc1ccc(F)nc1)c1ccc(NC(=O)N2CCN(C(=O)c3cccc(F)c3)CC2)cc1F` [Compound 99, 4-(3-Fluoro-benzoyl)-piperazine-1-carboxylic acid [3-fluoro-4-(6-fluoro-pyridin-3-ylcarbamoyl)-phenyl]-amide], for which the IC50 under setting [1] was 101 to 1000 nM.

Turning to `O=C(O)c1ccc(NC(=O)N2CCN(C(=O)c3cccc(F)c3)CC2)cc1` [Compound 100, 4-{[4-(3-Fluoro-benzoyl)-piperazine-1-carbonyl]-amino}-benzoic acid], the IC50 under setting [1] lay in the range of 101 to 1000 nM.

`CCN(CC)C(=O)c1ccc(NC(=O)N2CCN(C(=O)c3cccc(F)c3)CC2)cc1` [Compound 102, 4-(3-Fluoro-benzoyl)-piperazine-1-carboxylic acid (4-diethylcarbamoyl-phenyl)-amide] showed an IC50 of 101 to 1000 nM.

`O=C(Nc1ccc(F)nc1)c1ccc(NC(=O)N2CCN(C(=O)c3cccc(F)c3)CC2)cc1` [Compound 103, 4-(3-Fluoro-benzoyl)-piperazine-1-carboxylic acid [4-(6-fluoro-pyridin-3-ylcarbamoyl)-phenyl]-amide]: the IC50 under setting [1] fell in the range of 101 to 1000 nM.

For the compound `NC(=O)c1ccc(NC(=O)N2CCN(C(=O)c3cccc(F)c3)CC2)cc1F` [Compound 104, 4-(3-Fluoro-benzoyl)-piperazine-1-carboxylic acid (4-carbamoyl-3-fluoro-phenyl)-amide], the 50% inhibitory concentration (IC50) under setting [1] lay within 101 to 1000 nM.

Take `Nc1cccc(NC(=O)N2CCN(C(=O)c3cccc(F)c3)CC2)c1` [Compound 106, 4-(3-Fluoro-benzoyl)-piperazine-1-carboxylic acid (3-amino-phenyl)-amide]: the IC50 under setting [1] was 101 to 1000 nM.

As to `O=C(Nc1cccc(NC(=O)N2CCN(C(=O)c3cccc(F)c3)CC2)c1)c1ccccn1` [Compound 107, 4-(3-Fluoro-benzoyl)-piperazine-1-carboxylic acid {3-[(pyridine-2-carbonyl)-amino]-phenyl}-amide], the IC50 under setting [1] fell in the range of 11 to 100 nM.

Regarding `O=C(Nc1cccc(NC(=O)N2CCN(C(=O)c3cccc(F)c3)CC2)c1)c1cccc[n+]1[O-]` [Compound 108, 4-(3-Fluoro-benzoyl)-piperazine-1-carboxylic acid {3-[(1-oxy-pyridine-2-carbonyl)-amino]-phenyl}-amide], the IC50 under setting [1] was 101 to 1000 nM.

Regarding `O=C(Nc1cccc(NC(=O)N2CCN(C(=O)c3cccc(F)c3)CC2)c1)c1cc[n+]([O-])cc1` [Compound 110, 4-(3-Fluoro-benzoyl)-piperazine-1-carboxylic acid {3-[(1-oxy-pyridine-4-carbonyl)-amino]-phenyl}-amide], under setting [1], the half-maximal inhibitory concentration (IC50) fell in the range of 101 to 1000 nM.

The record behind these values is US20100234377A1 (priority 2007, published 2010).
